Experimental findings from paper PMC11876671, “Investigating blood–brain barrier penetration and neurotoxicity of natural products for central nervous system drug development” (Scientific Reports, 2025) are described below.

Molecules are shown by their SMILES. Where a SMILES comes first, the peptide text is derived from it. [ ]: non-standard residue; d: D form. The star is where a group is joined. X2 = CCC(C)(C)NCCN(CCNC(C)(C)/C(C)=N/O)CCN*; Tyr(3-I) = N[C@@H](Cc1ccc(O)c(I)c1)C(=O)O Where only a bound is given, the exact number is not on record here.

A short description of one data set: in vitro. The following applies: PAMPA, PAMPA-BBB Pe.
Usually Papp stands for the rate of passage across a membrane or cell layer, normalised by area and donor concentration. A high value points to fast passage. `C=C(C)[C@@H]1CCC2=CCC[C@@H](C)[C@]2(C)C1` had a Papp of 18 ×10⁻⁶ cm/s. The molecule `COc1ccc2[nH]c3c(c2c1)CCNC3C` (stereo not drawn) [ADRENOGLOMERULOTROPIN] displayed a Papp of 23 ×10⁻⁶ cm/s.

The same data set, now with this note: PAMPA, PAMPA-BBB Pe(10^-6 cm/sec).
Molecule `CNc1ccccc1C(=O)O` gave an apparent permeability (Papp) of 1.5 ×10⁻⁶ cm/s. On the same count and under the same terms, the result for `CO[C@@H]1[C@H](O)[C@@H](CO)O[C@H]1n1cnc2c(=O)[nH]c(N)nc21` [2'-O-METHYLGUANOSINE] reads under 1 ×10⁻⁶ cm/s; that for `COc1ccc(/C=C/C(=O)O)cc1OC` [3,4-DIMETHOXYCINNAMIC ACID], under 1 ×10⁻⁶ cm/s; that for `Nc1c(O)cccc1C(=O)CC(N)C(=O)O` (stereo not drawn) [3-HYDROXYKYNURENINE], under 1 ×10⁻⁶ cm/s. For the molecule `CC(=O)O[C@@]12CO[C@@H]1C[C@H](O)[C@@]1(C)C(=O)[C@H](O)C3=C(C)[C@@H](O)C[C@@](O)([C@@H](OC(=O)c4ccccc4)[C@H]21)C3(C)C` [10-DEACETYL BACCATIN III], the Papp was under 1 ×10⁻⁶ cm/s.

The molecule `CC(C)C/C=C(\C=O)c1ccccc1` [(Z)-5-METHYL-2-PHENYL-HEX-2-ENAL] yielded a Papp of under 1 ×10⁻⁶ cm/s. With `CC1=C(C)C(=O)C(CC[C@](C)(O)CCC[C@H](C)CCC[C@H](C)CCCC(C)C)=C(C)C1=O` [.ALPHA.-TOCOPHERYLQUINONE], the Papp stood at 7.2 ×10⁻⁶ cm/s.

Staying with this data set, now noted: PAMPA, PAMPA-BBB Pe(10^-6 cm/sec), Table S3: compounds exhibiting low PAMPA-BBB permeability.
Consider `CN(CCCC(=O)c1cccnc1)N=O`, for which the Papp was under 1 ×10⁻⁶ cm/s. On the same count and under the same terms, the result for `CC1NC(C(=O)O)Cc2c1[nH]c1ccccc21` (stereo not drawn) reads under 1 ×10⁻⁶ cm/s; that for `CCNc1nc(N)nc(Cl)n1`, 1.1 ×10⁻⁶ cm/s. On the same count and under the same terms, the result for `CC1CC(C)C(=O)C1=O` (stereo not drawn) reads 2.7 ×10⁻⁶ cm/s; that for `NC1C=CC=C(C(=O)O)C1` (stereo not drawn), under 1 ×10⁻⁶ cm/s. `O=C/C=C/c1ccccc1` had a Papp of under 1 ×10⁻⁶ cm/s. As to `C=C/C(C)=C/C/C=C(\C)CCC=C(C)C`, the Papp was under 1 ×10⁻⁶ cm/s. On the same count and under the same terms, the result for `NC(Cc1cc(O)c(O)cc1O)C(=O)O` (racemic) [2,4,5-TRIHYDROXY-DL-PHENYLALANINE] reads 9.3 ×10⁻⁶ cm/s; that for `O=C(OC[C@H]1O[C@@H](OC(=O)c2cc(O)c(O)c(O)c2)[C@H](OC(=O)c2cc(O)c(O)c(O)c2)[C@@H](OC(=O)c2cc(O)c(O)c(O)c2)[C@@H]1O)c1cc(O)c(O)c(O)c1` [1,2,3,6-TETRA-O-GALLOYL-.BETA.-D-GLUCOSE], under 1 ×10⁻⁶ cm/s.

As for `COC1=C(OC)C(=O)c2ccccc2C1=O` [2,3-DIMETHOXYNAPHTHOQUINONE], the Papp is 4.7 ×10⁻⁶ cm/s. The same measure, in the same setting: the result for `COC1=CC(=O)C=C(OC)C1=O` [2,6-DIMETHOXY-1,4-BENZOQUINONE] reads under 1 ×10⁻⁶ cm/s; that for `Nc1nc(Cl)nc2c1ncn2[C@@H]1O[C@H](CO)C(O)[C@H]1O` (stereo partly drawn) [2-CHLOROADENOSINE], under 1 ×10⁻⁶ cm/s; that for `O=C(O)c1ccco1` [2-FURANOIC ACID], under 1 ×10⁻⁶ cm/s.

For the molecule `Nc1ccn([C@@H]2O[C@H](CO)[C@@H](OP(=O)(O)O)[C@H]2O)c(=O)n1` [3'-CMP], the Papp is under 1 ×10⁻⁶ cm/s. Molecule `COc1ccc(C(=O)O)cc1OC` [3,4-DIMETHOXYBENZOIC ACID] had a Papp of under 1 ×10⁻⁶ cm/s. Molecule `O=C(O)/C=C/c1ccc2c(c1)OCO2` [3,4-METHYLENEDIOXYCINNAMIC ACID] registered a Papp of under 1 ×10⁻⁶ cm/s. The same measure, in the same setting: under `Cn1cnc(N)c2ncnc1-2` [3-METHYL-6-AMINOPURINE] stands under 1 ×10⁻⁶ cm/s; under `COc1ccc(O[C@@H]2O[C@H](CO)[C@H](O)[C@H](O)[C@H]2O)cc1` [4-METHOXYPHENYL .BETA.-D-GLUCOSIDE], 1.3 ×10⁻⁶ cm/s; under `COc1ccc2[nH]cc(CC(=O)O)c2c1` [5-METHOXYIN[…]], under 1 ×10⁻⁶ cm/s. Still for that read-out and setting: the result for `COc1cc2c(CCNC(C)=O)c[nH]c2cc1O` [6-HYDROXYMELATONIN] reads 2.8 ×10⁻⁶ cm/s; that for `CC(=O)OCC1=C(C(=O)O)N2C(=O)C(N)C2SC1` (stereo not drawn) [7-Aminocephalosporanic acid], under 1 ×10⁻⁶ cm/s; that for `CN(Cc1nc2c(N)nc(N)nc2nc1O)c1ccc(C(=O)N[C@@H](CCC(=O)O)C(=O)O)cc1` [7-HYDROXYMETHOTREXATE], under 1 ×10⁻⁶ cm/s. Consider `CC1(C)CCC2=C(O1)c1ccccc1C(=O)C2=O` [.BETA.-LAPACHONE], for which the apparent permeability (Papp) was under 1 ×10⁻⁶ cm/s. Turning to `NC(=O)c1ncn([C@@H]2O[C@H](CO)[C@@H](O)[C@H]2O)c1N` [ACADESINE], the Papp is under 1 ×10⁻⁶ cm/s. The same measure, in the same setting: the result for `Nc1ncnc2c1ncn2[C@@H]1O[C@H](CO)[C@@H](O)[C@H]1O` [ADENOSINE] reads under 1 ×10⁻⁶ cm/s.

The same data set, now with this note: PAMPA, PAMPA-BBB Pe, Table S2: compounds exhibiting moderate to high PAMPA-BBB permeability.
`O=C(/C=C/c1ccccc1)c1ccc(O)cc1O` returned a Papp of 223 ×10⁻⁶ cm/s. Same read-out and setting: the result for `CCCOc1ccc2[nH]cc(C3=CCNCC3)c2n1` reads 18 ×10⁻⁶ cm/s. `O=c1cc(N2CCOCC2)oc2c(-c3cccc4c3sc3ccccc34)cccc12` displayed a Papp of 102 ×10⁻⁶ cm/s. On the same count and under the same terms, the result for `COc1ccc(-c2oc3cc(OC)c(OC)c(OC)c3c(=O)c2OC)cc1OC` reads 120 ×10⁻⁶ cm/s. As to `COc1cccc(C=O)c1OC`, the Papp was determined as 107 ×10⁻⁶ cm/s. The same measure, in the same setting: under `CCC(C)(C)NCCN(CCNC(=O)CNC(=O)[C@H](CCCCN)NC(=O)[C@H](CC(C)C)NC(=O)[C@H](CC(C)C)NC(=O)[C@@H](NC(=O)[C@H](Cc1ccc(O)c(I)c1)NC(=O)[C@@H]1CCCN1C(=O)[C@H](CO)NC(=O)[C@@H](NC(=O)[C@H](CCC(N)=O)NC(=O)[C@H](CCC(=O)O)NC(=O)[C@H](CCC(N)=O)NC(=O)[C@H](CC(N)=O)NC(C)=O)C(C)C)[C@@H](C)O)CCNC(C)(C)/C(C)=N/O` (Ac-NQEQVSP[Tyr(3-I)]TLLKG-X2) stands 155 ×10⁻⁶ cm/s; under `CC(=O)/C=C/C1C(C)=CCC(C)C1(C)C` (mixture of isomers) [DL-TRANS-.ALPHA.-IRONE], 34 ×10⁻⁶ cm/s. On the same count and under the same terms, the result for `S=c1ccss1` [1,2-DITHIOLE-3-THIONE] reads 98 ×10⁻⁶ cm/s. The same measure, in the same setting: the result for `COc1ccccc1/C=C/C=O` [2'-METHOXYCINNAMALDEHYDE] reads 122 ×10⁻⁶ cm/s. For `COc1cccc(OC)c1C(=O)O` [2,6-DIMETHOXYBENZOIC ACID], the Papp came to 24 ×10⁻⁶ cm/s. For `CC(=O)c1c(O)cccc1O` [2-ACETYLRESORCINOL], the Papp came out at 45 ×10⁻⁶ cm/s. With `O=Cc1cc2ccccc2o1` [2-FORMYLBENZOFURAN], the Papp came to 154 ×10⁻⁶ cm/s. In the case of `CNC(=O)Nc1ccc(Cl)c(Cl)c1` [3,4-DCPMU], the Papp was 115 ×10⁻⁶ cm/s. On the same count and under the same terms, the result for `COc1cc(C)cc(O)c1` [3-HYDROXY-5-METHOXYTOLUENE] reads 50 ×10⁻⁶ cm/s; that for `CCCCc1ccc(O)cc1` [4-BUTYLPHENOL], 116 ×10⁻⁶ cm/s.

`CCc1ccc(O)c(OC)c1` [4-ETHYLGUAIACOL] gave a Papp of 116 ×10⁻⁶ cm/s. Consider `COc1ccc2[nH]c3c(c2c1)CCN=C3C` [6-METHOXYHARMALANE], for which the Papp is 49 ×10⁻⁶ cm/s. `CCCCCc1cccc(=O)o1` [6-PENTYL-2H-PYRAN-2-ONE] registered a Papp of 52 ×10⁻⁶ cm/s. The same measure, in the same setting: the result for `COc1ccc2ccc(=O)oc2c1` [7-METHOXYCOUMARIN] reads 77 ×10⁻⁶ cm/s; that for `C=C1CC[C@H](O)C/C1=C/C=C1\CCC[C@]2(C)[C@@H]([C@H](C)CCC(O)C(C)(C)O)CC[C@@H]12` (stereo partly drawn) [24,25-DIHYDROXYVITAMIN D3], 78 ×10⁻⁶ cm/s; that for `COc1cc(C2c3cc4c(c(O)c3CC3COC(=O)C32)OCO4)cc(OC)c1O` (stereo not drawn) [.ALPHA.-PELTATIN A], 14 ×10⁻⁶ cm/s. Regarding `Cc1ccc2c(c1)C(=O)c1ccccc1C2=O` [.BETA.-METHYLANTHRAQUINONE], the Papp is 26 ×10⁻⁶ cm/s. Same read-out and setting: under `CC[C@H](C)[C@H]1O[C@]2(C=C[C@@H]1C)C[C@@H]1C[C@@H](C/C=C(\C)[C@@H](O[C@H]3C[C@H](OC)[C@@H](O[C@H]4C[C@H](OC)[C@@H](O)[C@H](C)O4)[C@H](C)O3)[C@@H](C)/C=C/C=C3\CO[C@@H]4[C@H](O)C(C)=C[C@@H](C(=O)O1)[C@]34O)O2` [ABAMECTIN B1A] stands 35 ×10⁻⁶ cm/s.
